Assay results from patent US20240150293A1, “SPIROCYCLOHEXANE DERIVATIVES, PHARMACEUTICAL COMPOSITIONS CONTAINING THEM AND THEIR USES AS ANTI-APOPTOTIC INHIBITORS” (LES LABORATOIRES SERVIER, priority 2021, published 2024).
pIC50, pKi: −log10 of the molar value. Where two headings read alike, the source gives them in different places.

Legend:
NCI-H929 cell lines = assay: In vitro cytotoxicity, CellTiter-Glo (CTG) assay (Example B, Method B); format: cell-based; conditions: Homo sapiens, NCI-H929, 48 h, NCI-H929 cells, 48 h incubation, read-out: C50
Summary of the method: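 NCI-H929 cells exposed to an 11-point compound series from 10 mM DMSO stocks (top final 30 μM) for 48 h at 37° C., 5% CO2. Viability measured as ATP by CellTiter-Glo luminescence; C50 is the concentration giving 50% cellular viability.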

[1] = target: Cy5-labelled Mcl1 (amino acids 171-321) C286S protein (UniProtKB Q07820) (Homo sapiens (Human), UniProt Q07820, C286S); assay: Inhibition of Mcl-1 by the fluorescence quenching assay (Example A, Method B); format: binding
Sequence of Cy5-labelled Mcl1 (amino acids 171-321) C286S protein (Q07820 171-321 C286S): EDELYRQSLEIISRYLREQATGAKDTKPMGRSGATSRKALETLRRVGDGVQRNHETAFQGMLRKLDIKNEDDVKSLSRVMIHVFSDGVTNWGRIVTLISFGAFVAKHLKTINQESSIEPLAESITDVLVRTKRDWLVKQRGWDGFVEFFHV
Summary of the method: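 Cy5-labelled Mcl1 171-321 C286S (1 nM) quenched by TQ5WS-labelled PUMA peptide (10, 20 or 400 nM); displacement raises fluorescence (Ex 620/Em 680 nm). Buffer 10 mM HEPES, 150 mM NaCl, 0.05% Tween 20, pH 7.4, 5% DMSO; 2 h at room temperature, 11-point curves, IC50 converted to Ki (cKi/eKi).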

[2] = tested on: AMO-1 multiple myeloma xenograft; assay: Quantification of the cleaved form of PARP in vivo, per os (Example C); parameters: species or system SCID mice; conditions: single dose per os, tumors recovered 16 hours after dosing
Procedure: (§1) The ability of the compounds of the invention to induce apoptosis was evaluated in vivo using the AMO-1 multiple myeloma xenograft.
(§2) 1×10^7 cells were subcutaneously grafted into immunosuppressed SCID mice. 12-14 days later, when tumors had reached the appropriate volume, mice (3 per group) were treated once with the various compounds (per os, HEC 1%/Tween 80 99:1). Tumor samples were recovered 16 hours after dosing and lysed. Cleared lysates were used for cleaved PARP quantification (as a marker of apoptosis induction) using the Meso Scale Discovery (MSD) Elisa platform test. Results are expressed as the ratio between cleaved PARP in treated mice over control mice.

[3] = tested on: AMO-1 multiple myeloma xenografts; assay: Anti-tumor activity in vivo (Example D); parameters: species or system SCID mice
Procedure: The anti-tumor activity of the compounds of the invention was evaluated using AMO-1 multiple myeloma xenografts.
1×10^7 cells were subcutaneously grafted into immunosuppressed SCID mice. 7-10 days later, when the tumor mass had reached an average volume of about 150 mm^3, mice were treated with the various compounds once a week for 2 weeks (per os, HEC 1%/Tween 80 99:1). Tumor size was measured three times per week using electronic calipers.
At the end of the treatment cycle (d9), tumor growth inhibition (TGI) was calculated using the formula: […]
wherein DTV (Delta Tumor Volume) at Dx was calculated as follows: […]
(Tumor Volume at Dx)−(Tumor Volume at Randomization).

[4] = tested on: AMO-1 multiple myeloma xenograft; assay: Quantification of the cleaved form of PARP in vivo, IV (Example E); parameters: species or system SCID mice; conditions: single dose
Procedure: as §1
as §2, with “(IV).” for “(per os, HEC 1%/Tween 80 99:1).”, “recovered 6 or” for “recovered”

[5] = tested on: H929 multiple myeloma tumor line; assay: In vitro cytotoxicity, MTT assay (Example B, Method A); format: cell-based; conditions: Homo sapiens, NCI-H929, 48 h, H929 cells, 48 hours exposure, read-out: C50
Procedure: The cytotoxicity studies were carried out on the H929 multiple myeloma tumor line.
The cells are distributed onto microplates and exposed to the test compounds for 48 hours. The cell viability is then quantified by a colorimetric assay, the Microculture Tetrazolium Assay (Carmichael et al, Cancer Res. 1987, 47, 939-942).
The results are expressed in C50 which means concentration corresponding to […] of effect/inhibition.

[6] = 60 mpk per os once a week for 2 weeks
[7] = 120 mpk per os once a week for 2 weeks
[8] = 30 mpk per os once a week for 2 weeks

SMILES	pIC50 (NCI-H929 cell lines)	pKi [1]	Cleaved PARP (fold to control) ([2]; 30 mpk)	Cleaved PARP (fold to control) ([2]; 60 mpk)	% TGI (d9) [3, 6] [%]	Cleaved PARP (fold to control) ([2]; 120 mpk)	% TGI (d9) [3, 7] [%]	Cleaved PARP (fold to control) ([4]; 15 mpk IV, time-point 6 h)	Cleaved PARP (fold to control) ([4]; 30 mpk IV, time-point 6 h)	Cleaved PARP (fold to control) ([4]; 30 mpk IV, time-point 16 h)	% TGI (d9) [3, 8] [%]	pKi ([1]; Ki determined from IC50)	pIC50 [5]	Cleaved PARP (fold to control) ([4]; 7.5 mpk IV, time-point 6 h)
C[C@@H](COc1ccnc2c1[C@H](C)CCC2)C[C@H]1Cc2cc3c(cc2[C@]12CC[C@@](Nc1cccc(Cl)c1)(C(=O)O)CC2)OCCO3 [Example 838, (1r,4S,7′S)-4-(3-chloroanilino)-7′-[(2R)-2-methyl-3-{[(5R)-5-methyl-5,6,7,8-tetrahydroquinolin-4-yl]oxy}propyl]-2′,3′,7′,8′-tetrahydrospiro[cyclohexane-1,6′-indeno[5,6-b][1,4]dioxine]-4-carboxylic acid]	7.67	10.47	15 fold to control	7.8 fold to control	129.2	–	–	–	–	–	–	–	–	–
COCCOc1ccc2c(c1)[C@]1(CC[C@@](Nc3cccc(Cl)c3)(C(=O)O)CC1)[C@@H](C[C@@H](C)COc1ccnc3c1[C@H](C)CCC3)C2 [Example 794, (1r,2′S,4S)-4-(3-chloroanilino)-6′-(2-methoxyethoxy)-2′-[(2R)-2-methyl-3-{[(5R)-5-methyl-5,6,7,8-tetrahydroquinolin-4-yl]oxy}propyl]-2′,3′-dihydrospiro[cyclohexane-1,1′-indene]-4-carboxylic acid]	7.35	9.67	–	6.8 fold to control	70.2	12.1 fold to control	51.5	–	–	–	–	–	–	–
COCc1ccc2c(c1)[C@]1(CC[C@@](Nc3cccc(Cl)c3)(C(=O)O)CC1)[C@@H](C[C@@H](C)COc1ccnc3c1[C@H](C)CCC3)C2 [Example 919, (1r,2′S,4S)-4-(3-chloroanilino)-6′-(methoxymethyl)-2′-[(2R)-2-methyl-3-{[(5R)-5-methyl-5,6,7,8-tetrahydroquinolin-4-yl]oxy}propyl]-2′,3′-dihydrospiro[cyclohexane-1,1′-indene]-4-carboxylic acid]	7.41	10.57	6.7 fold to control	9.7 fold to control	121	–	–	185.6 fold to control	199.9 fold to control	69.7 fold to control	–	–	–	–
Cc1cc2c(cc1C)[C@]1(CC[C@@](Nc3cccc(Cl)c3)(C(=O)O)CC1)[C@@H](C[C@@H](C)COc1ccnc3c1[C@H](C)CCC3)C2 [Example 854, (1r,2′S,4S)-4-(3-chloroanilino)-5′,6′-dimethyl-2′-[(2R)-2-methyl-3-{[(5R)-5-methyl-5,6,7,8-tetrahydroquinolin-4-yl]oxy}propyl]-2′,3′-dihydrospiro[cyclohexane-1,1′-indene]-4-carboxylic acid]	6.83	9.34	6.9 fold to control	26.4 fold to control	95.2	29.1 fold to control	111.8	–	–	–	32	–	–	–
C[C@@H](COc1ccnc2c1[C@H](C)CCC2)C[C@H]1Cc2cc3c(cc2[C@]12CC[C@@](Nc1ccc(F)c(Cl)c1)(C(=O)O)CC2)OCO3 [Example 845, (1r,4S,6′S)-4-(3-chloro-4-fluoroanilino)-6′-[(2R)-2-methyl-3-{[(5R)-5-methyl-5,6,7,8-tetrahydroquinolin-4-yl]oxy}propyl]-6′,7′-dihydro-2′H-spiro[cyclohexane-1,5′-indeno[5,6-d][1,3]dioxole]-4-carboxylic acid]	7.42	10.13	–	–	128.3	–	–	188.7 fold to control	158.2 fold to control	116.4 fold to control	88.2	–	–	–
COc1ccc2c(c1)[C@]1(CC[C@@](Nc3cccc(Cl)c3)(C(=O)O)CC1)[C@@H](C[C@@H](C)COc1ccnc3c1[C@H](C)CCC3)C2 [Example 781, (1r,2′S,4S)-4-(3-chloroanilino)-6′-methoxy-2′-[(2R)-2-methyl-3-{[(5R)-5-methyl-5,6,7,8-tetrahydroquinolin-4-yl]oxy}propyl]-2′,3′-dihydrospiro[cyclohexane-1,1′-indene]-4-carboxylic acid]	7.08	9.63	11.6 fold to control	4.5 fold to control	107.8	–	–	–	–	–	76.4	–	–	–
CCOc1ccc2c(c1)[C@]1(CC[C@@](Nc3cccc(Cl)c3)(C(=O)O)CC1)[C@@H](C[C@@H](C)COc1ccnc3c1[C@H](C)CCC3)C2 [Example 784, (1r,2′S,4S)-4-(3-chloroanilino)-6′-ethoxy-2′-[(2R)-2-methyl-3-{[(5R)-5-methyl-5,6,7,8-tetrahydroquinolin-4-yl]oxy}propyl]-2′,3′-dihydrospiro[cyclohexane-1,1′-indene]-4-carboxylic acid]	6.97	10.10	–	–	112	–	–	227.5 fold to control	174.2 fold to control	129.9 fold to control	103.6	–	–	–
C[C@@H](COc1ccnc2c1[C@H](C)CCC2)CN1Cc2cc(F)ccc2[C@]12CC[C@@](Nc1ccc(F)c(Cl)c1)(C(=O)O)CC2 [Example 42, (1s,4S)-4-(3-chloro-4-fluoroanilino)-5′-fluoro-2′-[(2R)-2-methyl-3-{[(5R)-5-methyl-5,6,7,8-tetrahydroquinolin-4-yl]oxy}propyl]-2′,3′-dihydrospiro[cyclohexane-1,1′-isoindole]-4-carboxylic acid]	–	–	–	–	25.8	5 fold to control	114.1	–	–	–	–	9.53	7.47	–
Cc1c(Cl)cccc1N[C@]1(C(=O)O)CC[C@]2(CC1)c1cc3c(cc1C[C@@H]2C[C@@H](C)COc1ccnc2c1[C@H](C)CCC2)OCO3 [Example 847, (1r,4S,6′S)-4-(3-chloro-2-methylanilino)-6′-[(2R)-2-methyl-3-{[(5R)-5-methyl-5,6,7,8-tetrahydroquinolin-4-yl]oxy}propyl]-6′,7′-dihydro-2′H-spiro[cyclohexane-1,5′-indeno[5,6-d][1,3]dioxole]-4-carboxylic acid]	7.19	10.07	–	–	–	–	–	215 fold to control	–	–	–	–	–	185.9 fold to control
COc1cc2c(cc1Cl)C[C@H](C[C@@H](C)COc1ccnc3c1[C@H](C)CCC3)[C@]21CC[C@](Nc2cccc(Cl)c2)(C(=O)O)CC1 [Example 815, (1r,2′S,4S)-5′-chloro-4-(3-chloroanilino)-6′-methoxy-2′-[(2R)-2-methyl-3-{[(5R)-5-methyl-5,6,7,8-tetrahydroquinolin-4-yl]oxy}propyl]-2′,3′-dihydrospiro[cyclohexane-1,1′-indene]-4-carboxylic acid]	7.06	9.60	–	2.3 fold to control	18.7	4.6 fold to control	66.8	–	–	–	–	–	–	–
